Some test systems named below: HOP-62; UACC-257; MDA-MB-435; NCI/ADR-RES; HCT-15; NCI-H522; HCT-116; LOX IMVI; RXF 393; EKVX; ACHN; TK-10; SW-620; K562; BT-549; SN12C; NCI-H460; NCI-H23; OVCAR-4; HL-60.
What all share (assay): NCI-60 cell line screen, 48 h

Each structure is given as a SMILES string.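 The compound was tested at five concentrations on cells cultured in 96-well plates, with a 48-hour exposure period. The concentration for 50% growth inhibition is given as GI50.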 Active and inactive are the calls of the source. Cut-off read from the data, not from the text of the source: active = GI50 up to about 1.1 µM and inactive = higher.

The results in this text go back to ChEMBL document CHEMBL1201862, “PubChem BioAssay data set” (2004).

With `CC(NC(=O)C(N)CC(=O)O)NC(=O)N1CCOCC1` (centres undefined), the GI50 in the experiment with HOP-62 was > 100 µM (inactive); with UACC-257, > 100 µM (inactive); in the experiment with MDA-MB-435 it was > 100 µM (inactive); with NCI/ADR-RES it was > 100 µM (inactive); with HCT-15 it was above 100 µM; with NCI-H522, > 100 µM (inactive). In addition, the GI50 in the experiment on HCT-116, with LOX IMVI, with RXF 393, with EKVX, in the experiment on ACHN and in the experiment with TK-10 was > 100 µM (inactive) throughout. Also, the GI50 in the experiment on SW-620, with K562, with BT-549, in the experiment on SN12C, with NCI-H460 and with NCI-H23 was > 100 µM (inactive) in each case. Further, in the experiment on OVCAR-4, the GI50 was > 100 µM (inactive).
Consider `O=[N+]([O-])c1ccc(N/N=C2/CC3=C2CCCCCCCCCC3)c([N+](=O)[O-])c1`, for which the GI50 in the experiment with HOP-62 was > 100 µM (inactive); with UACC-257, > 100 µM (inactive); in the experiment with MDA-MB-435 it was > 100 µM (inactive); in the experiment on NCI/ADR-RES, > 100 µM (inactive); in the experiment on HCT-15, above 100 µM; in the experiment on NCI-H522 it was > 100 µM (inactive). The GI50 is > 100 µM (inactive) in the experiment on HCT-116; > 100 µM (inactive) in the experiment on RXF 393; > 100 µM (inactive) in the experiment with EKVX; > 100 µM (inactive) in the experiment with ACHN; 94.4 µM (inactive) in the experiment with TK-10; > 100 µM (inactive) with SW-620. The GI50 with K562, with BT-549, with SN12C, with NCI-H460, in the experiment on NCI-H23 and in the experiment on OVCAR-4 was > 100 µM (inactive) in each case.
Regarding `Oc1c(N2CCOCC2)cc(-c2cc(N3CCOCC3)c(O)c3ccccc23)c2ccccc12`, the GI50 with HOP-62 is 1.69 µM (inactive); in the experiment on UACC-257 it was 2.29 µM (inactive); in the experiment on MDA-MB-435, 1.38 µM (inactive); with NCI/ADR-RES it was 3.13 µM (inactive); with HCT-15 it was 2.31 µM; in the experiment with NCI-H522, 2.23 µM (inactive). Moreover, the GI50 with HCT-116 is 2.16 µM (inactive); in the experiment with LOX IMVI, 1.77 µM (inactive); with RXF 393 it was 1.56 µM (inactive); in the experiment on EKVX, 11.7 µM (inactive); in the experiment on ACHN, 2.93 µM (inactive); in the experiment on TK-10, 12.9 µM (inactive). The GI50 in the experiment on SW-620 was 2.04 µM (inactive); in the experiment with K562, 1.88 µM (inactive); with BT-549, 1.77 µM (inactive); in the experiment with SN12C, 1.58 µM (inactive); in the experiment with NCI-H460 it was 2.83 µM (inactive); with NCI-H23, 2.28 µM (inactive). For the same compound, in the experiment with OVCAR-4, the GI50 is 1.93 µM (inactive).
With `CP(=O)(O)C(N)c1ccccc1` (centres undefined), the GI50 was > 100 µM (inactive) in the experiment with HOP-62; > 100 µM (inactive) in the experiment with UACC-257; > 100 µM (inactive) with MDA-MB-435; > 100 µM (inactive) in the experiment on NCI/ADR-RES; above 100 µM in the experiment with HCT-15; > 100 µM (inactive) with NCI-H522. In addition, the GI50 in the experiment with HCT-116, with HL-60, with LOX IMVI, in the experiment with EKVX, with ACHN and in the experiment with TK-10 was > 100 µM (inactive) each time. Further, the GI50 in the experiment on SW-620, in the experiment on K562, in the experiment on BT-549, in the experiment with SN12C, in the experiment on NCI-H460 and in the experiment on NCI-H23 was > 100 µM (inactive) throughout. The GI50 with OVCAR-4 is > 100 µM (inactive).
For `CC1=CC2(C)C=C[C@@H]1C(=O)[C@@]1(C)CC[C@@](O)(C(C)C)[C@H]1CC2`, the GI50 in the experiment on HOP-62 was 20.2 µM (inactive); in the experiment with UACC-257, 16.4 µM (inactive); in the experiment with MDA-MB-435 it was 20.3 µM (inactive); in the experiment with NCI/ADR-RES, 20.2 µM (inactive); in the experiment on HCT-15 it was 24.2 µM; in the experiment on HCT-116, 17.3 µM (inactive). In addition, the GI50 with LOX IMVI was 19.1 µM (inactive); in the experiment on RXF 393, 19.4 µM (inactive); with EKVX it was 24.4 µM (inactive); with ACHN it was 17.6 µM (inactive); in the experiment with TK-10 it was 36.6 µM (inactive); in the experiment on SW-620 it was 18.8 µM (inactive). Moreover, the GI50 in the experiment with K562 was 20 µM (inactive); with BT-549, 33.8 µM (inactive); with SN12C, 20.9 µM (inactive); in the experiment on NCI-H460, 18.4 µM (inactive); in the experiment on NCI-H23, 19.1 µM (inactive); in the experiment on OVCAR-4, 17.8 µM (inactive).
As to `O=C(Nc1ccc(S(=O)(=O)Nc2ncccn2)cc1)c1c2ccccc2nc2ccccc12`, the GI50 in the experiment on HOP-62 was > 100 µM (inactive); in the experiment on UACC-257, > 100 µM (inactive); with MDA-MB-435, > 100 µM (inactive); with NCI/ADR-RES, > 100 µM (inactive); in the experiment with HCT-15 it was above 100 µM; in the experiment on NCI-H522, > 100 µM (inactive). Moreover, the GI50 with HCT-116 was > 100 µM (inactive); in the experiment with HL-60, < 0.01 µM (active); in the experiment with LOX IMVI, > 100 µM (inactive); in the experiment on EKVX, > 100 µM (inactive); with ACHN it was > 100 µM (inactive); with TK-10, > 100 µM (inactive). Further, the GI50 in the experiment with SW-620, in the experiment on K562, in the experiment with BT-549, in the experiment on SN12C, in the experiment on NCI-H460 and in the experiment with NCI-H23 was > 100 µM (inactive) each time. In addition, in the experiment on OVCAR-4, the GI50 was > 100 µM (inactive).
Consider `CN1CCOC1c1ccccc1O` (centres undefined), for which the GI50 in the experiment on HOP-62 is > 100 µM (inactive); in the experiment with UACC-257 it was > 100 µM (inactive); with MDA-MB-435, > 100 µM (inactive); in the experiment with NCI/ADR-RES it was > 100 µM (inactive); in the experiment on HCT-15, above 100 µM; in the experiment on NCI-H522, > 100 µM (inactive). In addition, the GI50 in the experiment on HCT-116, in the experiment on LOX IMVI, in the experiment with RXF 393, in the experiment on EKVX, with ACHN and in the experiment with TK-10 was > 100 µM (inactive) throughout. Further, the GI50 with SW-620, in the experiment with K562, in the experiment with BT-549, in the experiment with NCI-H460, with NCI-H23 and in the experiment on OVCAR-4 was > 100 µM (inactive) throughout.
On to `CCC1(C)C=Cc2c(cc(OC)c3c(=O)c4ccccc4n(C)c23)O1` (centres undefined), for which the GI50 is > 10 µM (inactive) in the experiment with HOP-62; > 10 µM (inactive) with UACC-257; > 10 µM (inactive) with MDA-MB-435; > 10 µM (inactive) in the experiment with NCI/ADR-RES; 7.23 µM with HCT-15; > 10 µM (inactive) in the experiment with NCI-H522. Moreover, the GI50 with HCT-116 was > 10 µM (inactive); in the experiment with LOX IMVI, > 10 µM (inactive); with RXF 393, 2.44 µM (inactive); in the experiment on EKVX, > 10 µM (inactive); with ACHN, > 10 µM (inactive); with TK-10 it was > 10 µM (inactive). For the same compound, the GI50 in the experiment with SW-620 was > 10 µM (inactive); with K562, 8.61 µM (inactive); in the experiment on BT-549, 5.4 µM (inactive); with SN12C, > 10 µM (inactive); in the experiment on NCI-H460, 8 µM (inactive); in the experiment with NCI-H23, > 10 µM (inactive). Besides, the GI50 in the experiment with OVCAR-4 was 9.51 µM (inactive).
As to `CCOC(=O)C1=[N+]([O-])OC2=C(O)CCCC21` (centres undefined), the GI50 was > 100 µM (inactive) with HOP-62; > 100 µM (inactive) in the experiment on UACC-257; > 100 µM (inactive) with MDA-MB-435; > 100 µM (inactive) in the experiment on NCI/ADR-RES; above 100 µM in the experiment with HCT-15; > 100 µM (inactive) in the experiment with NCI-H522. The GI50 in the experiment on HCT-116, in the experiment with LOX IMVI, in the experiment on RXF 393, with EKVX, with ACHN and with TK-10 was > 100 µM (inactive) throughout. For the same compound, the GI50 in the experiment on SW-620, in the experiment with K562, in the experiment on BT-549, in the experiment with SN12C, in the experiment on NCI-H460 and in the experiment on NCI-H23 was > 100 µM (inactive) throughout. Moreover, the GI50 in the experiment with OVCAR-4 was > 100 µM (inactive).
As for `C/C(=N\Nc1nc2ccccc2s1)c1cc2ccccc2cn1`, the GI50 is 3.2 µM (inactive) with HOP-62; 3.55 µM (inactive) in the experiment on UACC-257; 5.24 µM (inactive) with MDA-MB-435; 3.25 µM (inactive) in the experiment with NCI/ADR-RES; 0.424 µM in the experiment with HCT-15; 4.78 µM (inactive) in the experiment on NCI-H522. In addition, the GI50 was 3.03 µM (inactive) with HCT-116; 2.49 µM (inactive) in the experiment with LOX IMVI; 3.61 µM (inactive) in the experiment on RXF 393; 3.34 µM (inactive) in the experiment on EKVX; 2.88 µM (inactive) in the experiment with ACHN; 3.94 µM (inactive) in the experiment on TK-10. Further, the GI50 with SW-620 is 3.95 µM (inactive); in the experiment on BT-549, 6.05 µM (inactive); in the experiment with SN12C it was 4.29 µM (inactive); in the experiment on NCI-H460, 3.56 µM (inactive); with NCI-H23, 3.21 µM (inactive); in the experiment with OVCAR-4, 1.75 µM (inactive).
Take `COc1cc(C/C=C/c2ccccc2)c(OC)cc1O` [VIOLASTYRENE]: the GI50 with UACC-257 is 29.4 µM (inactive); in the experiment on MDA-MB-435, 18.5 µM (inactive); in the experiment on NCI/ADR-RES, 26.5 µM (inactive); with HCT-15 it was 17.9 µM; with NCI-H522, 20.9 µM (inactive); with HCT-116, 17.3 µM (inactive). The GI50 in the experiment with HL-60 was 23.6 µM (inactive); in the experiment with LOX IMVI it was 17.7 µM (inactive); in the experiment with EKVX, 18.1 µM (inactive); in the experiment with ACHN, 23.6 µM (inactive); in the experiment on TK-10, 18.8 µM (inactive); in the experiment with SW-620, 20 µM (inactive). Further, the GI50 in the experiment with K562 was 15.6 µM (inactive); in the experiment with BT-549 it was 24.7 µM (inactive); in the experiment with SN12C it was 19.1 µM (inactive); in the experiment on NCI-H460, 20.3 µM (inactive); in the experiment with NCI-H23, 21.3 µM (inactive); with OVCAR-4, 18 µM (inactive).
